According to patent US20130204033A1, “ANTIPROLIFERATIVE COMPOUNDS, CONJUGATES THEREOF, METHODS THEREFOR, AND USES THEREOF” (Medarex, Inc., priority 2009, published 2013):
Where two headings read alike, the source gives them in different places.

Experiments:
Assay type in all cases: cell-based, human
[1] = system: ZR-75; test: ATP luminescence proliferation assay, ZR-75
Experimental: (§1) This example generally describes the procedures used to assay the antiproliferative activity of compounds of this invention or their conjugates. Human tumor cell lines were obtained from the American Type Culture Collection (ATCC), P.O. Box 1549, Manassas, Va. 20108, USA, and cultured according to instruction from the ATCC. Cells were seeded at 1.0×10^3 or 1.0×10^4 cells/well in 96-well plates for 3 h for ATP assays or ^3H thymidine assays, respectively. 1:3 serial dilutions of free (unconjugated) compounds or their conjugates were added to the wells. Plates were allowed to incubate for 24 to 72 h. The ^3H thymidine plates were pulsed with 1.0 μCi of ^3H-thymidine per well for the last 24 hours of the total incubation period, harvested, and read on a Top Count Scintillation Counter (Packard Instruments, Meriden, Conn.). ATP levels in the ATP plates were measured using the […]-GLO® Luminescent Cell Viability kit following the manufacturer's manual and read on a GLOMAX® 20/20 luminometer (both from Promega, Madison, Wis., USA). The EC50 values—the concentration at which an agent inhibits or reduces cell proliferation by 50% —were determined using PRISM™ software, version 4.0 (GraphPad Software, La Jolla, Calif., USA).
(§2) Using the ^3H thymidine or the ATP luminescence assay, or both, the activities of compounds of this invention were assayed against the following cancer cell lines: HCT-15 (colorectal cancer, multi-drug resistant (MDR)); Hep3B (liver cancer); LNCaP (prostate cancer, androgen receptor positive (AR^+)); MDA-MB-231 (breast cancer, estrogen receptor, progesterone receptor, and Her2 negative (triple negative)); A2058 (melanoma); U-87 MG (glioblastoma); NCI-H460 (NSCLC); A549 (NSCLC); HPAC (pancreatic cancer, primary); PC3 (prostate cancer, AR); BT474 (breast cancer, Her2 highly positive (Her2hi)); SKOV3 (ovarian cancer, Her2hi); 786-O (renal cancer); UO-31 (renal cancer, MDR); NCI-H740 (SCLC); DMS53 (SCLC); SK-BR3 (breast cancer, Her2hi); ZR-75 (breast cancer, estrogen receptor positive); OVCAR3 (ovarian cancer); HL-60 (APL); OVCAR8/Adr (ovarian cancer, MDR); CEM-Cl (ALL); Nomo-1 (AML); RPMI-8226 (MM)); Raji (lymphoma); SW-480 (colorectal cancer, metastatic); SW-620 (colorectal cancer); and H226 (lung cancer). (Not all compounds were assayed against all cell lines.)
(§3) Table 3 provides the data for the ATP luminescence proliferation assays, with an incubation period of 48, 72, or 96 h, as noted.

[2] = system: HCT-15; test: ATP luminescence proliferation assay, HCT-15
Experimental: as §1, §2, §3

[3] = system: LNCaP; test: 3H thymidine proliferation assay, LNCaP
Experimental: as §1, §2
(§4) Table 2 provides the data for proliferation assays using the ^3H thymidine method, with an incubation period of 72 h.

[4] = system: A2058; test: ATP luminescence proliferation assay, A2058
Experimental: as §1, §2, §3

[5] = system: SW-480; test: ATP luminescence proliferation assay, SW-480
Experimental: as §1, §2, §3

[6] = system: HL-60; test: ATP luminescence proliferation assay, HL-60
Experimental: as §1, §2
FIGS. 12a and 12b show illustrative plots for ATP luminescence proliferation assays for a second set of compounds of this invention, against HL-60 and 786-O cells, respectively, with an incubation period of 72 h. FIGS. 12c and 12d show the plots for ^3H thymidine proliferation assays for the same set of compounds, again against HL-60 and 786-O cells, respectively, with a 72 h incubation period. In each instance, doxorubicin was used as a comparative compound.
as §3

[7] = system: UO-31; test: 3H thymidine proliferation assay, UO-31
Experimental: as §1, §2, §4

[8] = system: RPMI-8226; test: 3H thymidine proliferation assay, RPMI-8226
Experimental: as §1, §2, §4

[9] = system: MDA-MB-231; test: ATP luminescence proliferation assay, MDA-MB-231
Experimental: as §1, §2, §3

[10] = system: A549; test: ATP luminescence proliferation assay, A549
Experimental: as §1, §2, §3

[11] = system: LNCaP; test: ATP luminescence proliferation assay, LNCaP; conditions: Homo sapiens, 72 h, read-out: EC50 LNCaP (72 h), ATP luminescence, LNCaP, 72 h incubation
Experimental: as §1, §2, §3

[12] = Homo sapiens, ZR75, 48 h, read-out: EC50 ZR-75 (48 h), ATP luminescence, ZR-75, 48 h incubation
[13] = Homo sapiens, HCT-15, 48 h, read-out: EC50 HCT-15 (48 h), ATP luminescence, HCT-15, 48 h incubation
[14] = Homo sapiens, LNCaP, read-out: EC50, LNCaP, 3H thymidine method, 72 h incubation
[15] = Homo sapiens, A2058, 48 h, read-out: EC50 A2058 (48 h), ATP luminescence, A2058, 48 h incubation
[16] = Homo sapiens, SW480, 96 h, read-out: EC50 SW480 (96 h), ATP luminescence, SW480, 96 h incubation
[17] = Homo sapiens, HL-60, 72 h, read-out: EC50 HL-60 (72 h), ATP luminescence, HL-60, 72 h incubation
[18] = Homo sapiens, UO-31, read-out: EC50, UO-31, 3H thymidine method, 72 h incubation
[19] = Homo sapiens, RPMI-8226, read-out: EC50, RPMI-8226, 3H thymidine method, 72 h incubation
[20] = Homo sapiens, MDA-MB-231, 48 h, read-out: EC50 MDA-MB-231 (48 h), ATP luminescence, MDA-MB-231, 48 h incubation
[21] = ATP luminescence, ZR-75, 48 h incubation, read-out: EC50 ZR-75 (48 h)
[22] = ATP luminescence, HCT-15, 48 h incubation, read-out: EC50 HCT-15 (48 h)
[23] = 3H thymidine method, 72 h incubation, read-out: EC50, LNCaP
[24] = ATP luminescence, A2058, 48 h incubation, read-out: EC50 A2058 (48 h)
[25] = ATP luminescence, SW480, 96 h incubation, read-out: EC50 SW480 (96 h)
[26] = ATP luminescence, HL-60, 72 h incubation, read-out: EC50 HL-60 (72 h)
[27] = 3H thymidine method, 72 h incubation, read-out: EC50, UO-31
[28] = 3H thymidine method, 72 h incubation, read-out: EC50, RPMI-8226
[29] = ATP luminescence, MDA-MB-231, 48 h incubation, read-out: EC50 MDA-MB-231 (48 h)
[30] = ATP luminescence, HCT-15, 72 h incubation, read-out: EC50 HCT-15 (72 h)
[31] = ATP luminescence, A2058, 72 h incubation, read-out: EC50 A2058 (72 h)
[32] = ATP luminescence, MDA-MB-231, 72 h incubation, read-out: EC50 MDA-MB-231 (72 h)
[33] = Homo sapiens, HCT-15, 72 h, read-out: EC50 HCT-15 (72 h), ATP luminescence, HCT-15, 72 h incubation
[34] = Homo sapiens, A2058, 72 h, read-out: EC50 A2058 (72 h), ATP luminescence, A2058, 72 h incubation
[35] = Homo sapiens, MDA-MB-231, 72 h, read-out: EC50 MDA-MB-231 (72 h), ATP luminescence, MDA-MB-231, 72 h incubation

Compound	EC50 [1, 12] [nM]	EC50 [3, 14] [nM]	EC50 [5, 16] [nM]	EC50 [6, 17] [nM]	EC50 [7, 18] [nM]	EC50 [8, 19] [nM]	EC50 [1, 21] [nM]	EC50 [3, 23] [nM]	EC50 [5, 25] [nM]	EC50 [6, 26] [nM]	EC50 [7, 27] [nM]	EC50 [8, 28] [nM]	EC50 [2, 30] [nM]	EC50 [4, 31] [nM]	also measured
CC[C@H](C)[C@H](NC(=O)[C@H]1CCCCN1C)C(=O)N(C)[C@H](C[C@@H](OC)c1nc(C(=O)NC(Cc2ccccc2)C[C@H](C)C(=O)O)cs1)C(C)C (stereo partly shown) [Compound 15]	13	27	5.6	2.7	15	3.3									EC50 [2, 13]: 40 nM; EC50 [4, 15]: 3.5 nM; EC50 [9, 20]: 5.6 nM
CC[C@H](C)[C@H](NC(=O)[C@H]1CCCCN1C)C(=O)N(C)[C@H](C[C@@H](OC)c1nc(C(=O)N[C@@H](Cc2ccccc2)C(=O)OC)cs1)C(C)C [Compound 16]							11	> 100	48	2.8	> 100	22			EC50 [2, 22]: 157 nM; EC50 [4, 24]: 30 nM; EC50 [9, 29]: 28 nM
CCCC(NC(=O)c1csc([C@@H](C[C@H](C(C)C)N(C)C(=O)[C@@H](NC(=O)[C@H]2CCCCN2C)[C@@H](C)CC)OC)n1)C(=O)OC (stereo partly shown) [Compound 17]	24	> 100	92	7.4	> 100	47									EC50 [2, 13]: 443 nM; EC50 [4, 15]: 30 nM; EC50 [9, 20]: 65 nM
CCC[C@H](NC(=O)[C@H](Cc1ccccc1)NC(=O)c1csc([C@@H](C[C@H](C(C)C)N(C)C(=O)[C@@H](NC(=O)[C@H]2CCCCN2C)[C@@H](C)CC)OC)n1)C(=O)OC [Compound 19]							20	> 100	52	7.7	> 100	23	245	26	EC50 [9, 32]: 32 nM
CC[C@H](C)[C@H](NC(=O)[C@H]1CCCCN1C)C(=O)N(C)[C@H](C[C@@H](OC)c1nc(C(=O)N[C@@H](Cc2ccccc2)C(=O)N[C@@H](C)C(=O)OC)cs1)C(C)C [Compound 24]	8.4	76	42	6.4	> 100	17									EC50 [2, 33]: 188 nM; EC50 [4, 34]: 14 nM; EC50 [9, 35]: 13 nM
CC[C@H](C)[C@H](NC(=O)[C@H]1CCCCN1C)C(=O)N(C)[C@H](C[C@@H](OC)c1nc(C(=O)N[C@H](CC(=O)OC)Cc2ccccc2)cs1)C(C)C [Compound 25]	1000	930	261		435	396									EC50 [2, 33]: 366 nM; EC50 ([10]; Homo sapiens, A549, 48 h, read-out: EC50 A549 (48 h), ATP luminescence, A549, 48 h incubation): 111 nM; EC50 [4, 34]: 212 nM; EC50 ([6]; Homo sapiens, HL-60, 48 h, read-out: EC50 HL-60 (48 h), ATP luminescence, HL-60, 48 h incubation): 224 nM; EC50 [9, 35]: 202 nM
CC[C@H](C)[C@H](NC(=O)[C@H]1CCCCN1C)C(=O)N(C)[C@H](C[C@@H](OC)c1nc(C(=O)N[C@H](CCC(=O)OC)Cc2ccccc2)cs1)C(C)C [Compound 26]	208	> 3000	67	27	50	7.7									EC50 [2, 13]: 113 nM; EC50 [4, 15]: 93 nM; EC50 [11]: 412 nM; EC50 [9, 20]: 120 nM
CC[C@H](C)[C@H](NC(=O)[C@H]1CCCCN1C)C(=O)N(COC(=O)CC(C)C)[C@H](C[C@@H](O)c1nc(C(=O)N[C@@H](Cc2ccccc2)C(=O)OC)cs1)C(C)C [Compound 28]							16	64	36	2.9	> 100	8.7	132	20	EC50 [9, 32]: 16 nM
CC[C@H](C)[C@H](NC(=O)[C@H]1CCCCN1C)C(=O)N(COC(=O)CC(C)C)[C@H](C[C@@H](OC(C)=O)c1nc(C(=O)N[C@@H](Cc2ccccc2)C(=O)OC)cs1)C(C)C [Compound 29]							15	0.54	2.7		0.13	0.034	4.5	2.9	EC50 ([10]; ATP luminescence, A549, 48 h incubation, read-out: EC50 A549 (48 h)): 3.9 nM; EC50 ([6]; ATP luminescence, HL-60, 48 h incubation, read-out: EC50 HL-60 (48 h)): 0.59 nM; EC50 [9, 32]: 5.1 nM
CC[C@H](C)[C@H](NC(=O)[C@H]1CCCCN1C)C(=O)N(C)[C@H](C[C@@H](OC)c1nc(C(=O)N[C@@H](Cc2ccc(N)cc2)CC(C)C(=O)O)cs1)C(C)C (stereo partly shown) [Compound 51]							19	41	13		35	2.2	93	5.5	
CC[C@H](C)[C@H](NC(=O)[C@H]1CCCCN1C)C(=O)N(C)[C@H](C[C@@H](OC(C)=O)c1nc(C(=O)N[C@@H](Cc2ccc(N)cc2)C(=O)O)cs1)C(C)C [Compound 56]							> 100	> 100	> 100	> 100	> 100	> 100			EC50 [2, 22]: > 3000 nM; EC50 [4, 24]: > 100 nM; EC50 [9, 29]: > 100 nM
